What was measured:
[1] = test system: SUM149, SUM149R, SUM159, and SUM159R cells; experiment: Synergy studies (ATPlite, combination indices, isobolograms); type: cell-based, human
Procedure: SUM149, SUM149R, SUM159, and SUM159R cells were seeded in sterile, white, opaque 384-well microtiter plates (Thermo), using an automated dispensing system (BioTek EL406), at 1,000 cells per well in 50 μl of media. Drugs were delivered in DMSO by robotic pin transfer with a JANUS workstation (100 nl) to achieve a matrix of pairwise dose-response incubations of each compound, each pair having eight replicates. Following 72 hours of incubation, ATP levels were determined for treated cells and vehicle controls (ATPlite, PerkinElmer). Data were normalized to vehicle controls. Combination indices were determined using the median-effect principle of Chou and Talalay^49 (CalcuSyn Software). Isobologram plots were generated with GraphPad Prism software. Points represent paired values of drug concentrations assessed for synergism. The diagonal line signifies drug additivity. Points above the line represent antagonistic drug combinations, and those below the line represent synergistic drug combinations. Synergy assays were performed in triplicates and repeated 2-3 times.

[2] = test system: xenografts derived from SUM159R cells; experiment: Xenograft assay, SUM159R (BBI-resistant SUM159); type: in vivo, mice; details: administered along with JQ1
Procedure: (§1) For xenograft assays 5-6-weeks old female CrTac:NCr-Foxn1^nu and NOD.Cg-Prkdc^scid Il2rg^tm1Sug/JicTac mice were purchased from Taconic. Tumors were induced by bilateral orthotopic mammary fat pad injection of 1×10^6 cells in 50% Matrigel (BD Biosciences) in DMEM/F12 or Medium 171 (except for IDC50-X cells, which were injected with 3% FBS and 4 mg/ml collagen gel in Medium 171). Animal experiments were conducted following protocol 11-023 approved by the Dana-Farber Cancer Institute Animal Care and Use Committee.

[3] = test system: tumors derived from BBI-resistant SUM149 cells; experiment: Xenograft assay, BBI-resistant SUM149; type: in vivo, mice; details: administered along with JQ1
Procedure: as §1

[4] = test system: BRD4-MED1 association in SUM159R cells; experiment: BRD4 immunoprecipitation followed by immunoblot for MED1, resistant cells; type: cell-based, human; details: SUM159R, 3 hrs treatment
Procedure: Cells were lysed five days after transfection with siRNAs in RIPA buffer. Proteins were resolved in SDS-polyacrylamide gels (4%-12%) and transferred to PVDF membranes by using a Tris-glycine buffer system. […] Cells were incubated on ice for 15 min and gently vortexed every 5 min. […] After centrifugation of the lysates at 14 g for 10 min at 4° C., supernatant was diluted with 0.6 ml buffer A, and added NP-40 to final 0.5% and treated with DNase I. The samples were then incubated at 4° C. overnight with BRD4 or Flag antibodies at 1:100 dilution and immunoprecipitates were collected on Dynabeads Protein G for 2 hr. Beads were washed with buffer B containing 150 mM NaCl and 0.5% NP-40 three times and then resuspended in gel loading buffer. Immunoblotting and immunoprecipitation experiments were repeated 2-3 times.

phospho-BRD4 (pBRD4) = experiment: Immunoblot analysis of phospho-BRD4; type: cell-based, human; details: SUM159R, SUM149R, and other cell lines; short-term treatment
Description: Immunoblotting and immunoprecipitation experiments were repeated 2-3 times.

[5] = test system: MDR (multi drug resistance) pumps in SUM159 and SUM159R cells; experiment: Multi-Drug Resistance (MDR) assay; type: cell-based, human; details: with JQ1
Procedure: Cell viability and growth assays (FIGS. 1A-1B, FIGS. 3A-3E, 3G, FIGS. 5D-5F, FIGS. 6C, 6E, 6I, FIG. 7A, FIG. 10D, FIGS. 14A-14C), cycle, apoptosis, and MDR assays were performed in triplicates and repeated 2-3 times. For cell proliferation assays, cells were plated at 500 cells per well in 96-well plates and treated the next day with inhibitors, DMSO or doxycycline (500 ng). Cells were cultured at 37° C. with 5% CO2 in the media described-above, and cell viability was measured using CellTiter-Glo three days after treatments. For cell growth assays, cells were plated at 5000 (SUM159) or 20000 (SUM149) cells per well in 6-well plates and treated the next day with inhibitors. Cells were counted every three days by cell counter. Cellular apoptosis was analyzed with an APC AnnexinV/7ADD Apoptosis Detection kit (BD Pharmingen). AnnexinV/7AAD assessments and cell cycle graphics were generated using FlowJo software V7.6.1 for Windows (Tree Star). Senescence Beta-gal staining was performed using Senescence β-Galactosidase staining kit from Cell signaling. Briefly, after JQ1 treatment (500 nM) for 72 h, SUM159 and MDA-MB-231 cells were fixed by Fixative Solution for 15 min, followed by β-Galactosidase solution incubation overnight at 37° C. The staining was checked under microscope for the development of blue color. […]

[6] = summary statement, resistant cells

| SMILES | Synergy with JQ1 [1, 6] | Synergy with JQ1 ([1]; synergy screens, 72 hours) | Tumor weight [2] | Tumor weight [3] | further results |
| --- | --- | --- | --- | --- | --- |
| CN(C)CC[C@H](CSc1ccccc1)Nc1ccc(S(=O)(=O)NC(=O)c2ccc(N3CCN(Cc4ccccc4-c4ccc(Cl)cc4)CC3)cc2)cc1[N+](=O)[O-] [ABT737, 4-[4-[[2-(4-chlorophenyl)phenyl]methyl]piperazin-1-yl]-N-[4-[[(2R)-4-(dimethylamino)-1-phenylsulfanylbutan-2-yl]amino]-3-nitrophenyl] sulfonylbenzamide] | substantial synergy | Significant synergy | – | – | – |
| CC1(C)CCC(CN2CCN(c3ccc(C(=O)NS(=O)(=O)c4ccc(NCC5CCOCC5)c([N+](=O)[O-])c4)c(Oc4cnc5[nH]ccc5c4)c3)CC2)=C(c2ccc(Cl)cc2)C1 [ABT 199, 4-[4-[[2-(4-chlorophenyl)-4,4-dimethylcyclohexen-1-yl]methyl]piperazin-1-yl]-N-[3-nitro-4-(oxan-4-ylmethylamino)phenyl]sulfonyl-2-(1H-pyrrolo[2,3-b]pyridin-5-yloxy)benzamide] | substantial synergy | – | reduced tumor weight to a greater extent than the corresponding single therapy and JQ1 alone | reduced tumor weight to a greater extent than the corresponding single therapy and JQ1 alone | – |
| CC1(C)CCC(c2ccc(Cl)cc2)=C(CN2CCN(c3ccc(C(=O)NS(=O)(=O)c4ccc(N[C@H](CCN5CCOCC5)CSc5ccccc5)c(S(=O)(=O)C(F)(F)F)c4)cc3)CC2)C1 [ABT 263, 4-[4-[[2-(4-chlorophenyl)-5,5-dimethylcyclohexen-1-yl]methyl]piperazin-1-yl]-N-[4-[[(2R)-4-morpholin-4-yl-1-phenylsulfanylbutan-2-yl]amino]-3-(trifluoromethylsulfonyl)phenyl]sulfonylbenzamide] | substantial synergy | – | reduced tumor weight to a greater extent than the corresponding single therapy and JQ1 alone | reduced tumor weight to a greater extent than the corresponding single therapy and JQ1 alone | – |
| O=C(O)c1ccc2c(c1)nc(Nc1cccc(Cl)c1)c1ccncc12 [CX-4945, 5-(3-chloroanilino)benzo[c][2,6]naphthyridine-8-carboxylic acid] | substantial synergy | Significant synergy | – | – | – |
| N#CC[C@H](C1CCCC1)n1cc(-c2ncnc3[nH]ccc23)cn1 [INC424] | – | – | reduced tumor weight to a greater extent than the corresponding single therapy and JQ1 alone | reduced tumor weight to a greater extent than the corresponding single therapy and JQ1 alone | – |
| OCCN1CCN(CCCN2c3ccccc3Sc3ccc(Cl)cc32)CC1 [perphenazine] | substantial synergy | Significant synergy | – | – | – |
| c1ccc2c(c1)Nc1ccccc1S2 [phenothiazine] | – | – | – | – | MED1 abundance in BRD4 immunoprecipitation [4]: decreased MED1 abundance; pBRD4 levels (phospho-BRD4 (pBRD4)): rapid dephosphorylation of BRD4 |
| COc1ccc(CCN(C)CCCC(C#N)(c2ccc(OC)c(OC)c2)C(C)C)cc1OC (centres unmarked) [verapamil] | – | – | – | – | Effect of co-incubation with MDR1 inhibitor on BBI-resistance [5]: had no effect |
